Test results from patent US20250204532A1, “Treatment Liquid for Cleaning an Implant Part” (Zyfoma GmbH, priority 2013, published 2025).

Tested on: biofilm
Experiment: electrolytic cleaning of biofilm-contaminated implant surface (laboratory test)
Conditions: implants greatly covered and contaminated with a biofilm, on which tartar has also developed; relatively low dosages
Text: For detaching the bacteria or germs, respectively their residues or fragments, from the surface, it is provided to wet the latter with a conductive treatment liquid, charging it with current, possibly in the form of pulsed current impulses. […] Here, e.g. oil and/or chlorhexidine can be used. Furthermore, ionic liquids, which preferably contain I^−, Cl^− and/or OH^− ions, can also be used.

CC(=O)O [ethanoic acid]
cleaning success: good cleaning success
